Experimental findings from paper PMC5028780, “Receptor and transporter binding and activity profiles of albiflorin extracted from Radix paeoniae Alba” (Scientific Reports, 2016) are described below.

Structures are written as SMILES.

The target in test [1] is M5 (Homo sapiens, UniProt P08912). Briefly: CNS receptor binding, muscarinic M5. The settings on record: CHO cell line, [3H]-NMS(1). As to the method: (§1) Albiflorin (10 μM) was tested for numerous other potential binding targets by using standard receptor binding procedures. The tested targets included the following receptors: D1, D2, D3, D4, D5, 5-HT1A, 5-HT1B, 5-HT1D, 5-HT2a, 5-HT2C, 5-HT3, 5-HT5A, 5-HT6, 5-HT7, α1A, α1B, α2A, β1, M1, M2, M3, M4, M5, μ, κ, δ, A1, A2A, H1, H2, H3, H4.
Chain of M5 (P08912 whole entry): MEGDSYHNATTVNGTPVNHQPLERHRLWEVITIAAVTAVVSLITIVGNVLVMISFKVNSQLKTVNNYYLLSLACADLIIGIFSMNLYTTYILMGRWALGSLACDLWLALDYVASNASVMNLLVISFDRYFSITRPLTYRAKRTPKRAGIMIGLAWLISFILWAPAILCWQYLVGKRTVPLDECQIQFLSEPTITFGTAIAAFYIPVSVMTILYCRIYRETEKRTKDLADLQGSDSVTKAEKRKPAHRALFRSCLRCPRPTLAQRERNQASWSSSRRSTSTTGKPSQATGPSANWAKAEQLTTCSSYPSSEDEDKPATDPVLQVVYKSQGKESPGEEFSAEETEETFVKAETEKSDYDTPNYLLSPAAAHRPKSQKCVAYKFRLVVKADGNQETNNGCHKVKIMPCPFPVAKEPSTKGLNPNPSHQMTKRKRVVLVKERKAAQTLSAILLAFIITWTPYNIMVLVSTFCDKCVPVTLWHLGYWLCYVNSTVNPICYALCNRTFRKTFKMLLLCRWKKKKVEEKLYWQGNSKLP

Test [2] concerns the target 5-HT1B (Homo sapiens, UniProt P28222). Kind of test: CNS receptor binding, 5-HT1B. The following applies: HEK293 cell line, [3H]-LSD(6). The protocol:
as §1

For test [3], the target named is H1 (Homo sapiens, UniProt P35367). Kind of test: CNS receptor binding, histamine H1. The settings on record: CHO cell line, [3H]-pyrilamine(2). As to the method: as §1
Chain of H1 (P35367 whole entry): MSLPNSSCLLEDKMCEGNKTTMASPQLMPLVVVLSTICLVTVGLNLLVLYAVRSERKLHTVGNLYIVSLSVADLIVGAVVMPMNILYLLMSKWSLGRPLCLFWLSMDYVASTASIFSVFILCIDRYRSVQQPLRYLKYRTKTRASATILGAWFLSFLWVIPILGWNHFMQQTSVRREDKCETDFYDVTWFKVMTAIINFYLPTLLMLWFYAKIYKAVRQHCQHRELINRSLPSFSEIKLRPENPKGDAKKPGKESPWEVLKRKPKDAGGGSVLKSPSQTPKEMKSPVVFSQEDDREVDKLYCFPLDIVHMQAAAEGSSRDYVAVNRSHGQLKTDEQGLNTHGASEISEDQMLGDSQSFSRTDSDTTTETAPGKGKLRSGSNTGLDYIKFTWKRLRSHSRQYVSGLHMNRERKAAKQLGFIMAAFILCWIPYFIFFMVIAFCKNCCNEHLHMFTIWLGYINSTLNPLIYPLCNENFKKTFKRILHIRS
Test [4] deals with T1, hSERT (Homo sapiens, UniProt P31645).
T1 construct: expressed in transfected cells
T1 sequence (P31645 whole entry): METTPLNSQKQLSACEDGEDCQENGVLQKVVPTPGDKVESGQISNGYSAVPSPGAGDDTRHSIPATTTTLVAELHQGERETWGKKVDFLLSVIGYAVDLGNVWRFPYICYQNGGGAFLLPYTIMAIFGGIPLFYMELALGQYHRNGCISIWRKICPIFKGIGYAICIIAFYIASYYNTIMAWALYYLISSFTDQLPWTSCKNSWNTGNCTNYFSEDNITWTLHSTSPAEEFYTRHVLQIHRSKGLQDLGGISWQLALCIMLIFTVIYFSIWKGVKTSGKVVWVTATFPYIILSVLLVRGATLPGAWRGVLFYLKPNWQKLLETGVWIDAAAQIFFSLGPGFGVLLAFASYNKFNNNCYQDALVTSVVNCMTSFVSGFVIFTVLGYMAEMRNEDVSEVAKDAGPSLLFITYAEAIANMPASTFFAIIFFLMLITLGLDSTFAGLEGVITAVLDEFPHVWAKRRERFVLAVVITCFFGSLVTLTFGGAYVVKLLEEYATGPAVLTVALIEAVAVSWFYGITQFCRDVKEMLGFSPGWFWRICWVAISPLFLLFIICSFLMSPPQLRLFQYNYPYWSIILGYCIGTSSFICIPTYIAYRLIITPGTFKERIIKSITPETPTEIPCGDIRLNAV
It counts as binding. As to the method:
Membranes were prepared from HEK293 cells stably expressing hSERT, hNET, or hDAT as described previously. Briefly, [^3H]-citalopram (1 nM), [^3H]-nisoxetine (2 nM), or [^3H]-WIN35,428 (2 nM) was used to label human 5-HT, NE, or DA transporters, respectively.
(§2) All data for inhibition curves were analysed by nonlinear regression using Prism software (GraphPad Software Inc., San Diego, CA) to determine IC50 values. For the microdialysis experiments, two-way repeated-measures ANOVA followed by Tukey’s test was used to compare the percentage increase over baseline between groups, time and treatment as independent factors, and time as the repeated factor.

Test [5] concerns the target D5 (Homo sapiens, UniProt P21918). Briefly: CNS receptor binding, dopamine D5. The following applies: HEK293 cell line, [3H]-SCH23390(1). The protocol:
as §1

Test [6] has as its target 5-HT2a (Homo sapiens, UniProt P28223). Kind of test: CNS receptor binding, 5-HT2a. The settings on record: HEK293 cell line, [3H]-ketanserin(1). As to the method: as §1
The target of test [7] is T1, hSERT. The test is classed as cell-based. The following applies: HEK293 cell line, read-out: IC50 values, uptake of [3H]-5-HT (SERT). The protocol: (§3) The uptake of 5-HT, NE and DA into HEK293 cells stably expressing human transporters was determined using methods previously described with slight modifications. Briefly, the culture medium was removed from cells, and the cells were washed once with phosphate-buffered saline. Krebs-Ringers-HEPES (KRH) assay buffer (100 μL/well, containing 120 mM NaCl, 4.7 mM KCl, 2.2 mM CaCl2, 1.2 mM MgSO4, 1.2 mM […], 10 mM HEPES, pH 7.4) was then added. Various concentrations of drugs were administered to cells in a 24-well plate. The uptake was initiated by the addition of [^3H]-5-HT (50 nM), [^3H]-NE (80 nM), or [^3H]-DA (50 nM). Uptake was terminated by five washes using cold KRH assay buffer after 10-min incubation at 37 °C. The cells were solubilised using 400 μL of scintillation fluid and counted using a Packard Top Count scintillation counter.
as §2

For test [8], the target named is T2, hDAT (Homo sapiens, UniProt Q01959).
T2 construct: expressed in transfected cells
T2 sequence (Q01959 whole entry): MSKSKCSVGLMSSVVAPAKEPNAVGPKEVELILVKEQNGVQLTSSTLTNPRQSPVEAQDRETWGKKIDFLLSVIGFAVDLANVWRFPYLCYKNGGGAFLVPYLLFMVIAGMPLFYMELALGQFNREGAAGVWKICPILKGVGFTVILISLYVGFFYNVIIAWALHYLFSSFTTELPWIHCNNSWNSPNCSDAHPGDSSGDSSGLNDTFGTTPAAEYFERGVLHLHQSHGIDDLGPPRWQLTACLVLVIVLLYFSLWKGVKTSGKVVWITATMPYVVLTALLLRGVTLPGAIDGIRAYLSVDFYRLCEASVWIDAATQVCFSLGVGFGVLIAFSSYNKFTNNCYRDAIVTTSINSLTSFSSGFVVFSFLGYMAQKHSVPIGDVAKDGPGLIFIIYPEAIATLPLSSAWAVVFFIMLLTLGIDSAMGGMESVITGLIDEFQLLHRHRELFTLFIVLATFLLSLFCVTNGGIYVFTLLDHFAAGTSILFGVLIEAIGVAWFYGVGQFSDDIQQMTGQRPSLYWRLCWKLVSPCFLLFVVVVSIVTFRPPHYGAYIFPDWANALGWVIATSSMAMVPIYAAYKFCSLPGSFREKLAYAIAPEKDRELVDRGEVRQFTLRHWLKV
It counts as cell-based. The following applies: HEK293 cell line, read-out: IC50 values, uptake of [3H]-DA (DAT). The protocol:
as §3, §2

[9] abbreviates: read-out: IC50 values for albiflorin.

Chain of 5-HT1B (P28222 whole entry): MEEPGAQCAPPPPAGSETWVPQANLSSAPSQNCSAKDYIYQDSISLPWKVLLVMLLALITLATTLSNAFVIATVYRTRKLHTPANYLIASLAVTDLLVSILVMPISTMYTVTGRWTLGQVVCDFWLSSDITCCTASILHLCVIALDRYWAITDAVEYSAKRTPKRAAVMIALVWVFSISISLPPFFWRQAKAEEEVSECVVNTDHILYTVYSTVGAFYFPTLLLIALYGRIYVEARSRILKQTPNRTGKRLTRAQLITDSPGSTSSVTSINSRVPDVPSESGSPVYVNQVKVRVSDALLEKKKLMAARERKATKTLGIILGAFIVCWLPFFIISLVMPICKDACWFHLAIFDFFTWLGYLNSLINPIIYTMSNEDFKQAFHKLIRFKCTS
Chain of D5 (P21918 whole entry): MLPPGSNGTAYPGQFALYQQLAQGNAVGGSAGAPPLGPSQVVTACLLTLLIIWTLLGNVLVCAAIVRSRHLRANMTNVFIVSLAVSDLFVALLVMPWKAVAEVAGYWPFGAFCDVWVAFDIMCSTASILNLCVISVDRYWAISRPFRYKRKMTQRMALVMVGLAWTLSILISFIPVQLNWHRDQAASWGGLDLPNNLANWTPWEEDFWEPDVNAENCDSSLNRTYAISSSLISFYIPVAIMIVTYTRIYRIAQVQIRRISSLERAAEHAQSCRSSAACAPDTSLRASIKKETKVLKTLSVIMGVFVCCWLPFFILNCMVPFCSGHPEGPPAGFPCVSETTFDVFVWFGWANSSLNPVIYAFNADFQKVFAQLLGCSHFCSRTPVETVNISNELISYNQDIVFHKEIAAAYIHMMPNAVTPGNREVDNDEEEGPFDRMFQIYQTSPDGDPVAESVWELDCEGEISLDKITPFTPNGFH
Chain of 5-HT2a (P28223 whole entry): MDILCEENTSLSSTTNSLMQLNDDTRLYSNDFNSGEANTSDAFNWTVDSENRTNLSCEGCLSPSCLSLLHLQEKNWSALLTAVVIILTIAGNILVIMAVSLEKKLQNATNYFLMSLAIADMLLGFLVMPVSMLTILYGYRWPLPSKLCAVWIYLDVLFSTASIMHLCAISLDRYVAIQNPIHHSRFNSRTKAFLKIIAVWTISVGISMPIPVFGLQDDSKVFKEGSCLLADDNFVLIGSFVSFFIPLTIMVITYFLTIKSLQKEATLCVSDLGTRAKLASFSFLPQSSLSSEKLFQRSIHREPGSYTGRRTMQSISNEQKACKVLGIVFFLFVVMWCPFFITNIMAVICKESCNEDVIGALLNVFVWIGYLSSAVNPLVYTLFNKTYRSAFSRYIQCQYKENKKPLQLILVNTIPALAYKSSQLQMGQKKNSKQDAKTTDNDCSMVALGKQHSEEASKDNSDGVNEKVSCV

In the case of `C[C@]12C[C@@H](O)[C@@H]3C[C@@]1(O[C@@H]1O[C@H](CO)[C@@H](O)[C@H](O)[C@H]1O)[C@@]3(COC(=O)c1ccccc1)C(=O)O2` [albiflorin, Albiflorin], the “% Inhibition of binding at 10 μM albiflorin” value in test [1] was 20.11%; in test [2], 16.60%; in test [3] it was 6.33%; in test [5], 32.50%; in test [6], 55.36%. Besides, the IC50 (commonly the concentration at which inhibition is half-maximal) in test [1] (setting [9]) is over 10 µM; in test [2] (setting [9]), over 10 µM; in test [3] (setting [9]), over 10 µM; in test [5] (setting [9]), over 10 µM; in test [6] (setting [9]), 4 ± 0.113 µM; in test [7], 0.00236 ± 0.00074 µM. Further, the 50% inhibitory concentration (IC50) in test [8] is 2.24 ± 0.025 µM. Moreover, the Ki (as a rule, a dissociation constant, usually derived from enzyme kinetics or from competition with a known ligand) in test [4] (Human, [3H]-citalopram, HEK293 cell line, read-out: Ki values, SERT binding) came out at 0.00645 ± 0.00048 µM. Moreover, the “affinity relative to fluoxetine in human SERT binding assay” value in test [4] (albiflorin vs fluoxetine) was 17 fold.
